The text below walks through data of PubChem BioAssay (NCI).

Test systems include ACHN renal; SF-268 CNS; MOLT-4 leukemia; SK-MEL-5 melanoma; RXF 393 renal; RPMI-8226 leukemia; SN12C renal; A549 NSCLC; HCC-2998 colon; HS 578T breast.
Assay in all cases: NCI tumour cell line growth inhibition, 48 h

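Step 1: Grow cells in 96-well plates. Step 2: Expose to compound for 48 hours at 5 concentrations. Step 3: Interpolate endpoints linearly; if unreached, use highest concentration. GI50: concentration for 50% inhibition of growth. The concentration for full growth arrest is given as TGI.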 A value given as a limit tells only on which side of the number the result lay.

Consider `CCOC(=O)C/C(N)=C(\C#N)C(=O)OCC`, for which the TGI in the experiment on ACHN renal, in the experiment on SF-268 CNS, in the experiment on MOLT-4 leukemia, in the experiment with SK-MEL-5 melanoma, with RXF 393 renal and in the experiment on RPMI-8226 leukemia was more than 100 µM in each case. Also, the TGI with SN12C renal and in the experiment on A549 NSCLC was more than 100 µM each time.
In the case of `CC(C)(C)C1CCP(=O)(c2ccccc2)CC1` (centres undefined), the TGI with ACHN renal, with MOLT-4 leukemia, in the experiment on SK-MEL-5 melanoma, in the experiment on RXF 393 renal, with RPMI-8226 leukemia and in the experiment with SN12C renal was more than 100 µM in each case. In addition, the TGI in the experiment on A549 NSCLC and with HCC-2998 colon was more than 100 µM throughout.
For the molecule `CC(C)(C)C1CCC(CI)(N=[N+]=[N-])CC1` (centres undefined), the TGI in the experiment with ACHN renal, in the experiment on SF-268 CNS, with MOLT-4 leukemia, in the experiment on SK-MEL-5 melanoma, in the experiment on RXF 393 renal and in the experiment on RPMI-8226 leukemia was more than 100 µM in each case. Besides, the TGI in the experiment on SN12C renal, in the experiment on A549 NSCLC and in the experiment on HCC-2998 colon was more than 100 µM throughout.
Take `Cc1ccc(S(=O)(=O)Nc2cccc(C)c2C)cc1`: the TGI is more than 100 µM in the experiment on SF-268 CNS; more than 100 µM with MOLT-4 leukemia; more than 100 µM in the experiment with SK-MEL-5 melanoma; 84 µM in the experiment on RXF 393 renal; more than 100 µM with RPMI-8226 leukemia; more than 100 µM with SN12C renal. In addition, the TGI with A549 NSCLC and in the experiment with HCC-2998 colon was more than 100 µM in each case.
In the case of `Cc1ccc(C2NC(=S)N3C(c4ccc(C)cc4)NC(=S)N23)cc1` (centres undefined), the GI50 in the experiment on ACHN renal was 10.1 µM; with SF-268 CNS it was 7.78 µM; with HS 578T breast, 4.74 µM; with MOLT-4 leukemia, 5.82 µM; in the experiment on SK-MEL-5 melanoma, 3.88 µM; in the experiment with RXF 393 renal, 3.27 µM. Besides, the GI50 in the experiment on SN12C renal is 5.88 µM; with A549 NSCLC it was 5.82 µM; in the experiment on HCC-2998 colon, 4.51 µM. In addition, the TGI came to 21.7 µM with ACHN renal; 22.1 µM in the experiment on SF-268 CNS; 25 µM in the experiment on HS 578T breast; 18.9 µM in the experiment on MOLT-4 leukemia; 14.3 µM with SK-MEL-5 melanoma; 14.1 µM in the experiment on RXF 393 renal. The TGI with SN12C renal was 19.4 µM; in the experiment with A549 NSCLC it was 20.1 µM; with HCC-2998 colon it was 17.4 µM.
Take `CN(C)CCCNC(=O)c1cccc2nc3ccccc3nc12`: the TGI in the experiment on ACHN renal is more than 100 µM; in the experiment on SF-268 CNS it was 39.9 µM; in the experiment on MOLT-4 leukemia, more than 100 µM; in the experiment with SK-MEL-5 melanoma, more than 100 µM; in the experiment with RXF 393 renal, 34.6 µM; with RPMI-8226 leukemia, more than 100 µM. In addition, the TGI with SN12C renal was more than 100 µM; with A549 NSCLC, more than 78.7 µM; with HCC-2998 colon, 50.4 µM.
Take `CC1=C(C(=O)Nc2cccc(C(F)(F)F)c2)C(c2ccccc2F)C(C(=O)Nc2cccc(C(F)(F)F)c2)=C(C)N1`: the TGI came to 19 µM in the experiment with ACHN renal; 8.41 µM in the experiment on MOLT-4 leukemia; 18 µM in the experiment with SK-MEL-5 melanoma; 15.5 µM in the experiment on RXF 393 renal; 10.1 µM in the experiment on RPMI-8226 leukemia; 23.9 µM with SN12C renal. Also, the TGI is 19.7 µM in the experiment with A549 NSCLC and 7.67 µM in the experiment on HCC-2998 colon.
Turning to `C=C(CS(=O)(=O)c1ccccc1)C(=O)OCC`, the TGI in the experiment with ACHN renal is 29.5 µM; in the experiment on SF-268 CNS, 40 µM; in the experiment with MOLT-4 leukemia, 17.8 µM; in the experiment on RXF 393 renal it was 24.4 µM; in the experiment with SN12C renal, 31.1 µM; in the experiment with A549 NSCLC, 37.1 µM. Moreover, the TGI in the experiment with HCC-2998 colon turned out to be 35.1 µM.
For `Cc1nn2c(=O)n(-c3cccc(-n4nnc5c(-c6ccccc6)c(C)nn5c4=O)c3C)nnc2c1-c1ccccc1`, the TGI in the experiment on ACHN renal was 76.7 µM; in the experiment on SF-268 CNS, more than 100 µM; with MOLT-4 leukemia, 50 µM; in the experiment on SK-MEL-5 melanoma it was 33.8 µM; in the experiment with RXF 393 renal, more than 100 µM; with RPMI-8226 leukemia it was 96.4 µM. For the same molecule, the TGI was 36.5 µM with SN12C renal, more than 100 µM in the experiment on A549 NSCLC and 55.8 µM in the experiment on HCC-2998 colon.
As to `COc1cc(-c2ccccc2)c(OC)cc1CCl`, the TGI with ACHN renal, in the experiment with SF-268 CNS, in the experiment with MOLT-4 leukemia, with SK-MEL-5 melanoma, in the experiment with RXF 393 renal and with RPMI-8226 leukemia was more than 100 µM throughout. Further, the TGI with SN12C renal, in the experiment on A549 NSCLC and with HCC-2998 colon was more than 100 µM in each case.
`Cc1cn(C2CC(N=[N+]=[N-])C(CO)O2)c(=O)[nH]c1=O` (centres undefined): the GI50 in the experiment with ACHN renal is more than 1000 µM; in the experiment on MOLT-4 leukemia it was more than 1000 µM; in the experiment with RPMI-8226 leukemia, 20.4 µM; with SN12C renal, more than 1000 µM; with A549 NSCLC, 325 µM; with HCC-2998 colon it was more than 1000 µM. For the same molecule, the TGI was more than 1000 µM in the experiment with ACHN renal; more than 1000 µM in the experiment with HS 578T breast; more than 1000 µM in the experiment with MOLT-4 leukemia; more than 1000 µM with SK-MEL-5 melanoma; 184 µM in the experiment with RPMI-8226 leukemia; more than 1000 µM with SN12C renal. Further, the TGI in the experiment on A549 NSCLC and with HCC-2998 colon was more than 1000 µM in each case.
For the molecule `CC(=O)NC1CCCN(O)C(=O)/C=C(/C)CCOC(=O)C(NC(C)=O)CCCN(O)C(=O)/C=C(/C)CCOC(=O)C(NC(C)=O)CCCN(O)C(=O)/C=C(/C)CCOC1=O.[Fe]` (centres undefined), the GI50 with ACHN renal, with SF-268 CNS, in the experiment with HS 578T breast, in the experiment on MOLT-4 leukemia, in the experiment on SK-MEL-5 melanoma and in the experiment on RPMI-8226 leukemia was more than 100 µM in each case. In addition, the GI50 in the experiment on SN12C renal, in the experiment on A549 NSCLC and with HCC-2998 colon was more than 100 µM each time. In addition, the TGI in the experiment with ACHN renal, in the experiment on SF-268 CNS, in the experiment on HS 578T breast, in the experiment with MOLT-4 leukemia, in the experiment with SK-MEL-5 melanoma and in the experiment with RPMI-8226 leukemia was more than 100 µM each time. For the same molecule, the TGI in the experiment on SN12C renal, with A549 NSCLC and in the experiment on HCC-2998 colon was more than 100 µM throughout.
Turning to `CCOc1ccc(/C=N\N2C(=O)c3ccccc3C2=O)cc1`, the TGI with ACHN renal, with SF-268 CNS, with MOLT-4 leukemia, in the experiment on SK-MEL-5 melanoma, in the experiment on RXF 393 renal and in the experiment with RPMI-8226 leukemia was more than 100 µM throughout. For the same molecule, the TGI in the experiment with SN12C renal, with A549 NSCLC and in the experiment on HCC-2998 colon was more than 100 µM each time.
